{"source": "paper PMC3171603", "about": "(Bioorganic & medicinal chemistry letters, 2011)", "key": {"HIV-1 NL4-3": {"system": "HIV-1 NL4-3", "test": "HIV-1 infectivity assay", "type": "cell-based", "details": "for anti-HIV activity: TZM-bl cells, statement in words"}, "[1]": {"test": "Cytotoxicity: growth inhibition of uninfected TZM-bl cells", "type": "cell-based", "details": "human"}}, "data": [{"smiles": "CCc1cc(=O)c2ccc3c(c2o1)[C@H](OC(=O)C12CCC(C)(C(=O)O1)C2(C)C)[C@H](OC(=O)C12CCC(C)(C(=O)O1)C2(C)C)[C@@H](C)S3", "note": "(some centres unmarked) [Compound 6b]", "values": [{"measurement": "anti-HIV activity", "setting": "HIV-1 NL4-3", "result": "remarkably reduced or even completely abolished"}]}, {"smiles": "Cc1cc(=O)oc2c3c(ccc12)SC(C)(C)[C@@H](OC(=O)[C@@]12CC[C@@](C)(C(=O)O1)C2(C)C)[C@H]3OC(=O)[C@@]12CC[C@@](C)(C(=O)O1)C2(C)C", "note": "[Compound 8b]", "values": [{"measurement": "anti-HIV activity", "setting": "HIV-1 NL4-3", "result": "remarkably reduced or even completely abolished"}]}, {"smiles": "Cc1cc(=O)oc2c3c(ccc12)SC(C)(C)[C@H](OC(=O)[C@@]12CC[C@@](C)(C(=O)O1)C2(C)C)[C@@H]3OC(=O)[C@@]12CC[C@@](C)(C(=O)O1)C2(C)C", "note": "[Compound 8a, 4-Methyl-1′-thia-DCK]", "values": [{"measurement": "CC50", "setting": "[1]", "result": "> 30.6", "unit": "µM"}]}, {"smiles": "CCc1cc(=O)c2ccc3c(c2o1)[C@@H](OC(=O)C12CCC(C)(C(=O)O1)C2(C)C)[C@@H](OC(=O)C12CCC(C)(C(=O)O1)C2(C)C)C(C)(C)O3", "note": "(some centres unmarked) [Compound 2-Ethyl-DCP, 2-ethyl-DCP, reference compound]", "values": [{"measurement": "CC50", "setting": "[1]", "result": 14.3, "unit": "µM"}, {"measurement": "EC50", "setting": "HIV-1 NL4-3; Human immunodeficiency virus 1, NL43, TZM-bl", "result": 0.12, "unit": "µM"}]}]}
